From PMC7004151, “Synthesis and Structure‐Activity Relationships of N‐(4‐Benzamidino)‐Oxazolidinones: Potent and Selective Inhibitors of Kallikrein‐Related Peptidase 6” (Chemmedchem, 2019) come the findings set out here.

Data set [1] deals with T1, KLK8 (Homo sapiens, UniProt O60259).
T1 construct: purchased 2B scientific
T1 sequence (O60259 33-260): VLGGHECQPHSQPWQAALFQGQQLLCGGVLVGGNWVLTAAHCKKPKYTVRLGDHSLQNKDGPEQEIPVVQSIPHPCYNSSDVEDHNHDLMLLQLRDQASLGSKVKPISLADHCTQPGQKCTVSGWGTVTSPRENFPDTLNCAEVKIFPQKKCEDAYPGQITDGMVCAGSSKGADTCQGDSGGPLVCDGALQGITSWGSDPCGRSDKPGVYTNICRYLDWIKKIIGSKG
In words: KLK8 enzyme inhibition assay. The class given is biochemical. Particulars: read-out: KLK8 pIC50 (converted). How it is done: Enzyme inhibition assays: All chemicals were purchased from Sigma Aldrich (Gillingham, UK) unless otherwise stated. All experiments were conducted in 384 well black, low volume microplates (Greiner 784076) with a final volume of 20 μL and compounds were dispensed into assay plates using an ECHO 550 acoustic dispenser (Labcyte). KLK6 (5 nM) (prepared as in ref. 21) was incubated with test compounds for 30 min at room temperature in assay buffer (50 mM Tris, pH 7.5, 150 mM NaCl, 1 mM EDTA, 0.05 % tween 20, 0.1 % bovine serum albumin (BSA), 1 mM dithiothreitol (DTT)) before the reaction was started by addition of 20 μM Boc‐Phe‐Ser‐Arg‐AMC substrate (Bachem). Fluorescence intensity was read at ex/em 355/460 following incubation for 2 h in the dark at room temperature.
Assays using KLK7 and KLK8 (2B scientific) were conducted in the same manner as for KLK6 with the following exceptions. Both KLK7 and KLK8 required activation before assaying. KLK7 was combined with an equal volume of 20 μg/ml thermolysin (R&D systems) in activation buffer (50 mM Tris, pH 7.5, 10 mM CaCl2, 150 mM NaCl and 0.05 % Brij‐L23) and incubated at 37 °C for 2 h, the reaction was stopped with the addition of 100 mM EDTA in stop solution (50 mM Tris, 150 mM NaCl, pH 8.5). KLK8 was combined with an equal volume of 0.4 mU/mL lysyl endopeptidase (Alpha laboratories) in activation buffer (50 mM Tris, pH 8.0) and incubated at 37 °C for 30 min. Activated KLK7 (40 nM) and KLK8 (25 nM) were assayed with 40 μM Mca‐RPKPVE‐Nval‐WRK(Dnp)‐NH2 fluorogenic MMP substrate (R&D systems) and 25 μM Boc‐V‐P‐R‐AMC substrate (R&D systems), respectively.

Data set [2] has as its target T2, CYP3A4 (Homo sapiens, UniProt P08684).
T2 construct: purchased Cypex; host or cells: bacterial membranes (bactosomes)
In words: Fluorescence-based CYP inhibition, CYP bactosomes. To be noted: read-out: CYP Inhibition IC50 3A4. Format: in vitro ADME. How it is done:
(§1) Fluorescence-based CYP Inhibition using recombinantly expressed CYP bactosomes: Fluorescence CYP inhibition studies were conducted at 37 °C in 96-well, flat-bottom, clear polystyrene plates. Incubation mixtures containing […] bactosomes (1000 pmol/mL, 10 mg/mL Cypex TM), fluorigenic substrate (Cypex TM) and 50 mM potassium phosphate buffer (pH 7.4) were prepared at the following final concentrations: CYP1A2, 5 pmol/mL+0.5 μM Ethoxyresorufin (ER); […] Bactosome control protein was included in reactions to give a final concentration of 0.025 mg/mL. Reaction times were verified to be within the limits of kinetics linearity. For each isoform, 220 μL of incubation mix was added to each well of a 96-well, flat-bottom, clear polystyrene plate. […] Reactions were initiated by the addition of 25 μL regenerating cofactor solution (23 mM Glucose-6-Phosphate, 2.2 mM NADP, 6 Units per ml Glucose-6-Phosphate Dehydrogenase (from Baker's yeast S. cerevisiae) in 2 % w/v NaHCO3, Sigma) and subsequent production of fluorescence metabolite measured at 1 min intervals over a 10 min period using a BMG Optima fluorescence detector (ER: Exc 530 nm, Em 590 nm, MFC: Exc 410 nm, Em 530 nm, CEC: Exc 410 nm, Em 530 nm, MAMC: Exc 405 nm, Em 460 nm, DEF: Exc 405 nm, Em 560 nm, 7BQ: Exc 485 nm, Em 530 nm). Fluorescence responses were adjusted to a percentage of uninhibited control before plotting against compound concentration and deriving the IC50 by fitting to a 4 parameter logistic regression model.

For data set [3], the target named is T3, CYP1A2 (Homo sapiens, UniProt P05177).
T3 construct: purchased Cypex; host or cells: bacterial membranes (bactosomes)
T3 sequence (P05177 1-516): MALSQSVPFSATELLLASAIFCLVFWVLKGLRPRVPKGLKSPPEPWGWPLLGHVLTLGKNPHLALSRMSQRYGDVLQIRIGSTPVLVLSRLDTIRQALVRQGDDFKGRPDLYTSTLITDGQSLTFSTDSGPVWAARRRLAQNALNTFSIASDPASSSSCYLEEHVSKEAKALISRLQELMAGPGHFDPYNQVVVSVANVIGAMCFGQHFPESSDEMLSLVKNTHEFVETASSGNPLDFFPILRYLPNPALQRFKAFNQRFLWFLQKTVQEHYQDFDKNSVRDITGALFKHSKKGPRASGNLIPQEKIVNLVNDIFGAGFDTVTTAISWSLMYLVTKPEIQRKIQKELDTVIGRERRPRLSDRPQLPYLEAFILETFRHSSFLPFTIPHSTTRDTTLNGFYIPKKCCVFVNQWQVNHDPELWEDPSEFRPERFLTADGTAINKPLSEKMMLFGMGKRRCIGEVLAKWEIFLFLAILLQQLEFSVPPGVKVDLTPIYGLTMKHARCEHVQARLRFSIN
As to the kind of experiment: Fluorescence-based CYP inhibition, CYP bactosomes. To be noted: read-out: CYP Inhibition IC50 1A2. Format: in vitro ADME. The procedure: as §1

Data set [4] addresses T4, CYP2C19 (Homo sapiens, UniProt P33261).
T4 construct: purchased Cypex; host or cells: bacterial membranes (bactosomes)
As to the kind of experiment: Fluorescence-based CYP inhibition, CYP bactosomes. Format: in vitro ADME. To be noted: recombinantly expressed CYP bactosomes (EasyCYP), pH 7.4, probe 3-Cyano-7-Ethoxycoumarin (CEC), 25 μM, read-out: CYP Inhibition IC50 2C19. The procedure: as §1

Data set [5] addresses T5, CYP2C9 (Homo sapiens, UniProt P11712).
T5 construct: purchased Cypex; host or cells: bacterial membranes (bactosomes)
In words: Fluorescence-based CYP inhibition, CYP bactosomes. The class given is in vitro ADME. To be noted: read-out: CYP Inhibition IC50 2C9. How it is done:
as §1

A short description of data set [6]: Kinetic aqueous solubility (laser nephelometry). The class given is physicochemical. To be noted: Milli-Q water with […] DMSO, kinetic from dmso stock, 2.5 % DMSO. The procedure:
Kinetic aqueous solubility: The aqueous solubility of the test compounds was measured using laser Nephelometry. Compounds were subjected to serial dilution from 10 mM to 0.5 mM in DMSO. An aliquot was then mixed with Milli‐Q water to obtain an aqueous dilution plate with a final concentration range of 250–12 μM, with a final DMSO concentration of 2.5 %. Triplicate aliquots were transferred to a flat bottomed polystyrene plate which was immediately read on the NEPHELOstar (BMG Lab Technologies). The amount of laser scatter caused by insoluble particulates (relative nephelometry units, RNU) was plotted against compound concentration using a segmental regression fit, with the point of inflection being quoted as the compounds aqueous solubility (μM).

Usually kinetic solubility stands for solubility judged after dilution from a stock solution rather than from solid.

T2 sequence (P08684 whole entry): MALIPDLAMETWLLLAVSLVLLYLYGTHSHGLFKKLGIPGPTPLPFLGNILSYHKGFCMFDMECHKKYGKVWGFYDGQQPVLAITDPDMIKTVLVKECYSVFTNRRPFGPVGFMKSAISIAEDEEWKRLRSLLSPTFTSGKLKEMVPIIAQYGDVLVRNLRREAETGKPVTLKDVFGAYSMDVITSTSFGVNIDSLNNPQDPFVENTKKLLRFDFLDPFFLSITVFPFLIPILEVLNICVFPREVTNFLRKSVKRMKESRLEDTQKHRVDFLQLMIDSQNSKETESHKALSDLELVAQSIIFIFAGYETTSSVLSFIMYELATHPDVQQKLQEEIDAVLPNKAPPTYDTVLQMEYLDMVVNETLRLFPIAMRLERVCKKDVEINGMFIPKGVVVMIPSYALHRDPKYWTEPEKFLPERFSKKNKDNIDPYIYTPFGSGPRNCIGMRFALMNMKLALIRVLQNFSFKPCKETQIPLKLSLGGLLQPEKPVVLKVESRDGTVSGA
T4 sequence (P33261 whole entry): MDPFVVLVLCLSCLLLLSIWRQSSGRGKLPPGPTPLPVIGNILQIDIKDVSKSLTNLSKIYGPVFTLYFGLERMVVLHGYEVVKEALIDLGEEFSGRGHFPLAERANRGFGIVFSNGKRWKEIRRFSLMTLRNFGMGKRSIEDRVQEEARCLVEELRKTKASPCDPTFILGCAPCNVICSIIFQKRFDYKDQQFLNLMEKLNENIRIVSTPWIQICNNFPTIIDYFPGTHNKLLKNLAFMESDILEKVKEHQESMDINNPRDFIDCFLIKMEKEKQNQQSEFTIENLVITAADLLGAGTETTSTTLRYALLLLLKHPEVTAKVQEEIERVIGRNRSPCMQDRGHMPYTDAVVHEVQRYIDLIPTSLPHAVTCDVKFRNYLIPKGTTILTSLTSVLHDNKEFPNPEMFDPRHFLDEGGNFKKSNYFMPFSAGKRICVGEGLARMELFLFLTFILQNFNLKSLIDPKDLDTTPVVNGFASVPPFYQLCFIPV
T5 sequence (P11712 whole entry): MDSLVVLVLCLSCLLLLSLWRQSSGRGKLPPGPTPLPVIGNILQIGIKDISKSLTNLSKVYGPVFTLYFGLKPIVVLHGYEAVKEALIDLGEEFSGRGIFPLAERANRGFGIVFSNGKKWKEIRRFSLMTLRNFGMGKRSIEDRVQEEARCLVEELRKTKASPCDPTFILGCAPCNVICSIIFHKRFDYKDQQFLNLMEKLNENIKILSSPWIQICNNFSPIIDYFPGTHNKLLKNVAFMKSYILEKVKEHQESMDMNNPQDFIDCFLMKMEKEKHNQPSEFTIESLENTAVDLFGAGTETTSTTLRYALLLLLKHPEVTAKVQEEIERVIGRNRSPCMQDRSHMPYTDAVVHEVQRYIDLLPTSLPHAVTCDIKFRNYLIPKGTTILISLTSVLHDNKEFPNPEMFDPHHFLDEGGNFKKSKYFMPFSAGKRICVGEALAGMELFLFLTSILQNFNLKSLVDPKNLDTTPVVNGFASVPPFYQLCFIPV

Take `CC[C@H](NC(=O)[C@H]1CN(c2ccc(C(=N)N)cc2)C(=O)O1)c1cccc2ccccc12` [Compound 32, (5R)‐3‐(4‐carbamimidoylphenyl)‐N‐((S)‐1‐(naphthalen‐1‐yl)propyl)‐2‐oxooxazolidine‐5‐carboxamide]: the IC50 in data set [1] is 0.2 µM; in data set [2], 4.8 µM; in data set [3] it was over 10 µM; in data set [5], over 10 µM. For the same molecule, in data set [4], the IC50 at 10 min is 7.9 µM. This molecule also had a solubility (kinetic) in data set [6] of over 250 µM.
